# Reference: the supplement of paper PMC11208160
# Test: recombinant UMI read abundance after kanamycin selection (control-corrected) (log10(CPM+1)); higher = more efficient recombination; extreme values may be limits of the assay; sequences stand for … in AGTGCAGAGAAAATCGGCCAGTTTTCTCTGCCTGCAGTCCGCATGCCGTGGGACCCCTTGGGTTCTAACCTGTTGCCTAGATTTATGCAGCGGACTGCCTTTCTCCCAAAGTGATAAACCGG…AGGTTGGTTTCACT; site = the 11-nt donor
# Method: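 Pooled E. coli donor-specificity screen for the IS621 bridge recombinase. Each library member carries a reprogrammed 11-nt donor and a full-length LE bridge RNA expressed in cis from the natural promoter, with a paired donor-binding loop (8-nt LDG + 4-nt RDG) and a target-binding loop fixed to T5. It is co-electroporated with a T5 target plasmid; recombinase is induced with 0.07 mM IPTG and recombinants are selected on kanamycin. UMIs are counted as CPM, averaged over two biological replicates and corrected by the unselected control. Molecule = full bridge RNA written as DNA, built from the T5 scaffold: LDG = donor specificity nt 1-8, RDG = reverse complement of nt 8-11.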
# 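Note: IS621 bridge recombinase in Escherichia coli cells against a fixed T5 target plasmid.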
row,Sequence,recombinant UMI read abundance (log10)
1,AAGTGAGCATGGACCGGTTTTCCCGGTAATCCGTATTTGGA (site AAGTGAGCTTC),0.812
2,AATAATGCATGGACCGGTTTTCCCGGTAATCCGTATTTGGA (site AATAATGCTTC),1.06
3,AATAATGCATGGACCGGTTTTCCCGGTAATCCGTATTTGGA (site AATCATGCTTC),0.217
4,AATAATGCATGGACCGGTTTTCCCGGTAATCCGTATTTGGA (site AATGATGCTTC),0.361
5,AATAATGCATGGACCGGTTTTCCCGGTAATCCGTATTTGGA (site AATTATGCTTC),0.707
6,AATACTTCATGGACCGGTTTTCCCGGTAATCCGTATTTGGA (site AATACTTCTTC),1.81
7,AATAGACCATGGACCGGTTTTCCCGGTAATCCGTATTTGAT (site AATAGACCTAT),0
8,AATAGTACATGGACCGGTTTTCCCGGTAATCCGTATTTGCG (site AATAGTACTCG),0.989
9,AATCAACCATGGACCGGTTTTCCCGGTAATCCGTATTTGGT (site AATCAACCTAC),0.00613
10,AATCAATCATGGACCGGTTTTCCCGGTAATCCGTATTTGGC (site AATCAATCTGC),2.07
11,AATCATTCATGGACCGGTTTTCCCGGTAATCCGTATTTGCT (site AATCATTCTAG),2.27
12,AATCCTCCATGGACCGGTTTTCCCGGTAATCCGTATTTGGA (site AATCCTCCTTC),0
13,AATCGTCCATGGACCGGTTTTCCCGGTAATCCGTATTTGAT (site AAACGTCCTAT),0.00356
14,AATCGTCCATGGACCGGTTTTCCCGGTAATCCGTATTTGAT (site AACCGTCCTAT),0.0167
15,AATCGTCCATGGACCGGTTTTCCCGGTAATCCGTATTTGAT (site AAGCGTCCTAT),0.432
16,AATCGTCCATGGACCGGTTTTCCCGGTAATCCGTATTTGAT (site AATCGTCCTAT),0.306
17,AATCTACCATGGACCGGTTTTCCCGGTAATCCGTATTTGAG (site AATCTACCTCT),0.0184
18,AATCTCGCATGGACCGGTTTTCCCGGTAATCCGTATTTGCG (site AATCTCGCTCG),0.0146
19,AATGCCTCATGGACCGGTTTTCCCGGTAATCCGTATTTGAG (site AATGCCTCTCT),0.693
20,AATGTATCATGGACCGGTTTTCCCGGTAATCCGTATTTGCT (site AATGTAACTAG),0.796
21,AATGTATCATGGACCGGTTTTCCCGGTAATCCGTATTTGCT (site AATGTACCTAG),0.03
22,AATGTATCATGGACCGGTTTTCCCGGTAATCCGTATTTGCT (site AATGTAGCTAG),0

row,Sequence,recombinant UMI read abundance (log10)
1,AATGTATCATGGACCGGTTTTCCCGGTAATCCGTATTTGCT (site AATGTATCTAG),2.56
2,AATTAGGCATGGACCGGTTTTCCCGGTAATCCGTATTTGGA (site AATTAAGCTTC),0.133
3,AATTAGGCATGGACCGGTTTTCCCGGTAATCCGTATTTGGA (site AATTACGCTTC),0.011
4,AATTAGGCATGGACCGGTTTTCCCGGTAATCCGTATTTGGA (site AATTAGGCTTC),0.746
5,AATTAGGCATGGACCGGTTTTCCCGGTAATCCGTATTTGGA (site AATTATGCTTC),0.317
6,AATTATTCATGGACCGGTTTTCCCGGTAATCCGTATTTGGA (site AATTATACTTC),0.554
7,AATTATTCATGGACCGGTTTTCCCGGTAATCCGTATTTGGA (site AATTATCCTTC),0.553
8,AATTATTCATGGACCGGTTTTCCCGGTAATCCGTATTTGGA (site AATTATGCTTC),0.0186
9,AATTATTCATGGACCGGTTTTCCCGGTAATCCGTATTTGGA (site AATTATTCTTC),2.28
10,AATTCGTCATGGACCGGTTTTCCCGGTAATCCGTATTTGAA (site AATTCGTCTTT),0.559
11,AATTGTGCATGGACCGGTTTTCCCGGTAATCCGTATTTGGA (site AATTATGCTTC),0.773
12,AATTGTGCATGGACCGGTTTTCCCGGTAATCCGTATTTGGA (site AATTCTGCTTC),0.00901
13,AATTGTGCATGGACCGGTTTTCCCGGTAATCCGTATTTGGA (site AATTGTGCTTC),0.895
14,AATTGTGCATGGACCGGTTTTCCCGGTAATCCGTATTTGGA (site AATTTTGCTTC),0.0805
15,AATTTAGCATGGACCGGTTTTCCCGGTAATCCGTATTTGTC (site AATTTAGCTGA),0.582
16,AATTTTGCATGGACCGGTTTTCCCGGTAATCCGTATTTGGA (site AATTATGCTTC),0.473
17,AATTTTGCATGGACCGGTTTTCCCGGTAATCCGTATTTGGA (site AATTCTGCTTC),0.118
18,AATTTTGCATGGACCGGTTTTCCCGGTAATCCGTATTTGGA (site AATTGTGCTTC),0.154
19,AATTTTGCATGGACCGGTTTTCCCGGTAATCCGTATTTGGA (site AATTTTGCTTC),1
20,ACAAAGACATGGACCGGTTTTCCCGGTAATCCGTATTTGCA (site ACAAAGACTTG),3.1
21,ACAAAGACATGGACCGGTTTTCCCGGTAATCCGTATTTGCA (site AGGAAGACTTG),2.33
22,ACAAAGCCATGGACCGGTTTTCCCGGTAATCCGTATTTGGC (site ACAAAGCCTGC),0

row,Sequence,recombinant UMI read abundance (log10)
1,ACAAGAACATGGACCGGTTTTCCCGGTAATCCGTATTTGTC (site ACAAGAACTGA),1.75
2,ACAAGAACATGGACCGGTTTTCCCGGTAATCCGTATTTGTC (site ACACGAACTGA),0.00498
3,ACAAGAACATGGACCGGTTTTCCCGGTAATCCGTATTTGTC (site ACAGGAACTGA),0
4,ACAAGAACATGGACCGGTTTTCCCGGTAATCCGTATTTGTC (site ACATGAACTGA),0
5,ACAAGGACATGGACCGGTTTTCCCGGTAATCCGTATTTGCG (site ACAAGGACTCG),2.42
6,ACAAGGGCATGGACCGGTTTTCCCGGTAATCCGTATTTGAC (site ACAAGGGCTGT),2.69
7,ACAAGTGCATGGACCGGTTTTCCCGGTAATCCGTATTTGAC (site ACAAGTGCTGT),2.62
8,ACAAGTTCATGGACCGGTTTTCCCGGTAATCCGTATTTGTC (site ACAAGTTCTGA),0
9,ACAATATCATGGACCGGTTTTCCCGGTAATCCGTATTTGCA (site ACAATATCTTG),2.85
10,ACAATATCATGGACCGGTTTTCCCGGTAATCCGTATTTGCA (site ACACTATCTTG),1.83
11,ACAATATCATGGACCGGTTTTCCCGGTAATCCGTATTTGCA (site ACAGTATCTTG),2.35
12,ACAATATCATGGACCGGTTTTCCCGGTAATCCGTATTTGCA (site ACATTATCTTG),1.81
13,ACAATCTCATGGACCGGTTTTCCCGGTAATCCGTATTTGCA (site ACAATCTCTTG),2.51
14,ACAATCTCATGGACCGGTTTTCCCGGTAATCCGTATTTGCA (site ACAGTATCTTG),1.54
15,ACACACCCATGGACCGGTTTTCCCGGTAATCCGTATTTGTG (site ACACACCCTCA),0.012
16,ACACATCCATGGACCGGTTTTCCCGGTAATCCGTATTTGAA (site ACACATCCTAT),0.229
17,ACACATCCATGGACCGGTTTTCCCGGTAATCCGTATTTGAA (site ACACATCCTCT),0
18,ACACATCCATGGACCGGTTTTCCCGGTAATCCGTATTTGAA (site ACACATCCTGT),0
19,ACACATCCATGGACCGGTTTTCCCGGTAATCCGTATTTGAA (site ACACATCCTTT),1.72
20,ACACATCCATGGACCGGTTTTCCCGGTAATCCGTATTTGAG (site ACACATCCTAT),0.549
21,ACACATCCATGGACCGGTTTTCCCGGTAATCCGTATTTGAG (site ACACATCCTCT),0.668
